# Like-named read-outs stand apart in the source and are kept apart here.
# What was measured:
# Lactobacillus gasseri = test: Lactobacilli growth; type: cell-based
# rabbit sperm = test: Rabbit contraceptive efficacy, ex-vivo sperm mixing; type: in vivo; conditions: for inhibition of pregnancy rates (PR): 1 mM (1.4 mg/mL), Table 6: 0.1% (~1 mM); for Implantation Sites (Mean ± SD): 11 days post-insemination
# Protocol: Semen was collected from New Zealand White (NZW) male rabbits with the aid of an artifical vagina, pooled and adjusted with a modified Tyrode's albumin lactate pyruvate (TALP) medium to 50 million motile sperm per milliliter. Ovulation was induced in females by injection of 200 IU of human chorionic gonadotropin (hCG) intravenously. Under the ex-vivo (in-vitro) mixing protocol, sperm were incubated with indicated suramin test compounds in a tube for 15 minutes at 37° C. prior to insemination (0.5 mL) as described in Anderson R. A., et al. J. Androl., 21: 862-875 (2000). […] Sperm-compound contact, in this case, took place in vivo, inside the vagina. Insemination and administration of the compound was performed with a flexible, 12 cm long polyurethane catheter. The main endpoints for both protocols were the number of implantation sites counted 11 days after insemination and pregnancy rate. Such sites were counted by visual inspection of the tubes.
# HSV-2 = test: HSV plaque assay, HSV-2; type: cell-based, HSV (type 2 strain 333)
# Protocol: Evaluation of anti-HSV activity of suramin was based on the method described by Herold et al., J. Virol., 70: 3461-3469 (1996). The compound was serially diluted (1000 μg/ml to 1.0 μg/ml) in phosphate-buffered saline (PBS), and each dilution was mixed with each of two serial dilutions (10^−5 and 10^−6) HSV (type 2 strain 333). Working viral titers were […]. Samples (1 ml) of each mixture were plated in duplicate on washed and drained confluent monolayers of CaSki cells (a human cervical epithelial cell line, obtained from the American Type Culture Collection, Rockville, Md.) on the bottoms of 25 cm^2 flasks. Initial titer (indicated in the control cultures with no added test agent) in each culture was given as pfu/ml. The flasks were incubated for 2 hours, after which the medium (containing virus and test compound) was removed and the cells were washed with PBS. Cells were cultured for 3 days in medium 199, supplemented with 1% serum and 0.5% methyl cellulose that contained anti-HSV antibodies to prevent the formation of secondary plaques. Cells were stained with Giemsa for the counting of viral plaques by phase contrast microscopy. The viral titer was inferred from the number of plaques, after correction for dilutions. Values were corrected to a control titer 5×10^8 pfu/ml. Data were expressed as viral titer and as the percentage of plaques that are counted in control cell cultures (not exposed to test agent). […] The concentration of the compound that was required to reduce the viral titer by 50% (IC50) was estimated with curve-fitting software (TableCurve 2D, version 3.02) from plots of plaque-forming units (pfu) per ml as a function of concentration of the compound.
# sperm = test: Sperm viability, membrane integrity (HOST); type: cell-based
# Protocol: Viability of sperm was assessed by a sperm membrane integrity evaluation as described in Jeyendran R. S. et al., J. Reprod. Fertil., 70: 219-28 (1984). Aliquots of sperm samples were incubated with suramin or N-9 test compounds. The reaction was terminated by the addition of 1.5 mL Ham's F10. Sperm were centrifuged and the pellet was resuspended in 200 μL of medium. Sperm viability was assessed by placing 100 μL of the sperm suspension in 900 μL of hypo-osmotic swelling test (HOST) medium for 30 min. Coiled sperm tails are a reflection of intact sperm membrane permeability and indicate viable sperm. A minimum of 200 cells were microscopically assessed from each sample.
# HIV-1 Ba-L = test: C-MAGI/Ba-L assay (viral entry inhibition, BaL); type: cell-based; conditions: for IC50: Human immunodeficiency virus 1, BAL
# Protocol: The C-MAGI/Ba-L assays were carried out with MAGI-CCR-5 cells. The cell line was maintained in DMEM medium containing 10% FBS, 100 U/ml penicillin, 300 μg/mL glutamate and selection antibiotics as indicated above. Before assay, the cells were placed in 96 well flat tissue culture plates at 1×10^4 cells per well, and incubated overnight in the absence of antibiotics. The next day, medium was removed, and virus and compound (100 μL virus (HIVBa-L)+100 μL compound) were added. The cultures were incubated for 2 hours to facilitate virus attachment. After this incubation, the medium is removed from the wells, replaced with fresh compound-free medium, washed twice and finally incubated at 37° C. for 2 days in fresh medium. Following incubation, the medium was removed and induction of β-galactosidase enzyme activity was detected by chemiluminescence. β-galactosidase activity was detected using a chemiluminescence substrate, following the manufacture's instructions (Tropix). The TC50 and IC50 are determined using linear regression and a therapeutic index or antiviral index calculated. The results of this assay are provided herein.
# [1] = test system: HIV-1 Ba-L in monocyte-derived dendritic cells; test: Infection of T cells by HIV associated to dendritic cells (DC/T assay); type: cell-based; conditions: for EC50: Human immunodeficiency virus 1, Dendritic cell
# Protocol: Monocyte-derived dendritic cells (MO-DC), infected with the NSI/R5 strain Ba-L at 10-3 multiplicity of infection, were cultured alone or with autologous CD4(+) T cells at a ratio 1:1 or 1:10. A dilution series of suramin was added to the MO-DC, 1 hour prior to infection and remained present during infection. After infection, cells were extensively washed and compounds were added at the same concentrations as for the pre-incubation. Medium and compounds were refreshed twice a week. After 2 weeks, HIV Ag was measured in supernatants with ELISA and EC50 values (effective conc. 50%) were calculated using linear regression (Vanham G et al, AIDS 2000, 14: 2299-2311). The results of this assay are provided herein.
compound,measurement,setting,value
"Cc1ccc(C(=O)Nc2ccc(S(=O)(=O)O)c3cc(S(=O)(=O)O)cc(S(=O)(=O)O)c23)cc1NC(=O)c1cccc(NC(=O)Nc2cccc(C(=O)Nc3cc(C(=O)Nc4ccc(S(=O)(=O)O)c5cc(S(=O)(=O)O)cc(S(=O)(=O)O)c45)ccc3C)c2)c1 [Suramin, 8,8′-(carbonylbis(imino-3,1-phenylenecarbonylimino(4-methyl-3,1-phenylene)carbonylimino))bis-1,3,5-naphthalene trisulfonic acid]",effect on growth of Lactobacillus gasseri,Lactobacillus gasseri; 5 mg/mL,no inhibitory effect
same,"growth of Lactobacillus gasseri, % of control",Lactobacillus gasseri; 5 mg/mL (highest concentration tested),107 % of control
same,"Potency, Lactobacilli (Doubling time)",Lactobacillus gasseri; max. concentration tested = 5 mg/mL,None
same,effect on PR,rabbit sperm; 0.1 mg/mL,did not significantly reduce PR
same,inhibition of pregnancy rates (PR),rabbit sperm,86% inhibition
same,inhibition of pregnancy rates (PR),rabbit sperm; listed as suramin sodium,86%
same,"inhibition, rabbit pretreated sperm",rabbit sperm; 5% in KY Jelly (Table 6),100% inhibition
same,prevention of pregnancies,rabbit sperm; five percent (5%) concentration,completely prevented pregnancies
same,"Potency, Contraception, rabbit pretreated sperm (In-vitro mixing)","rabbit sperm; rabbit, in vivo",Moderate
same,Pregnancy Rate (%),rabbit sperm; suramin 0.1 mg/ml,83%
same,Implantation Sites (Mean ± SD),rabbit sperm; suramin 0.1 mg/ml,4.4 ± 0.8
same,Implantation Sites (Mean ± SD),"rabbit sperm; suramin 0.1 mg/ml, listed as suramin sodium",4.4±0.8
same,Number of Pregnant Females/Total,"rabbit sperm; suramin 0.1 mg/ml, sperm mixed 15 min before insemination",5/6
same,Pregnancy Rate (%),rabbit sperm; suramin 1.4 mg/ml,14%
same,Number of Pregnant Females/Total,rabbit sperm; suramin 1.4 mg/ml (1 mM),1/7
same,Implantation Sites (Mean ± SD),rabbit sperm; suramin 1.4 mg/ml,1
same,Pregnancy Rate (%),rabbit sperm; suramin 50 mg/ml,0%
same,Number of Pregnant Females/Total,rabbit sperm; suramin 50 mg/ml (5%),0/7
same,"Potency, HSV-2 Plaque",HSV-2,High
same,inhibition at 100 µg/mL,"HSV-2; Human alphaherpesvirus 2, 100 μg/mL, read-out: inhibition of viral infectivity, plaque assay",100%
same,IC50,"HSV-2; Human alphaherpesvirus 2, read-out: IC50 against HSV-2",1 µg/mL
same,sperm viability vs solvent-treated controls,sperm; 10-0.001 mg/mL,No significant differences
same,"Potency, Viability (HOST)",sperm; time- and dose-dependent exp.,None
same,"Potency, HIV-1 MAGI-Bal",HIV-1 Ba-L,High
same,IC50,"HIV-1 Ba-L; HeLa, 2 h, read-out: IC50, Cell-Free Strains BaL, CD4/coreceptor expressing HeLa cells, incubation 2 hours",5.5 µg/mL
same,IC50,"HIV-1 Ba-L; 2h-incubation, read-out: IC50 against Bal",0.39 µg/mL
same,"Potency, HIV-1 DC",[1],High
same,IC50,"[1]; Human immunodeficiency virus 1, BAL, Dendritic cell, read-out: IC50 dendritic cell (DC)/T lymphocyte model",17 µg/mL
same,EC50,"[1]; DC infected with BaL cultured alone, read-out: EC50, Dendritic Cells (DC)",56 ± 6 µg/mL
same,EC50,"[1]; DC infected with BaL with autologous T lymphocytes 1:1, read-out: EC50, DC + T Cells (1:1)",57.5 ± 5 µg/mL
same,EC50,"[1]; DC infected with BaL with autologous T lymphocytes 1:10, read-out: EC50, DC + T Cells (1:10)",17 ± 3 µg/mL

# From patent US8552064B2, “Suramin and derivatives thereof as topical microbicide and contraceptive” (Eastern Virginia Medical School, priority 2005, dated 2013)
